Results published in US20260199309A1, “COMPOUNDS FOR THE TREATMENT OF CENTRA NERVOUS SYSTEM DISORDERS” (Autifony Therapeutics Limited, priority 2022, published 2026).
Where two headings read alike, the source gives them in different places.

Molecular target: T1, human Kv3.1 channels (hKv3.1) (Homo sapiens, UniProt P48547)
T1 construct: expressed in transfected cells
T1 sequence (P48547 1-511): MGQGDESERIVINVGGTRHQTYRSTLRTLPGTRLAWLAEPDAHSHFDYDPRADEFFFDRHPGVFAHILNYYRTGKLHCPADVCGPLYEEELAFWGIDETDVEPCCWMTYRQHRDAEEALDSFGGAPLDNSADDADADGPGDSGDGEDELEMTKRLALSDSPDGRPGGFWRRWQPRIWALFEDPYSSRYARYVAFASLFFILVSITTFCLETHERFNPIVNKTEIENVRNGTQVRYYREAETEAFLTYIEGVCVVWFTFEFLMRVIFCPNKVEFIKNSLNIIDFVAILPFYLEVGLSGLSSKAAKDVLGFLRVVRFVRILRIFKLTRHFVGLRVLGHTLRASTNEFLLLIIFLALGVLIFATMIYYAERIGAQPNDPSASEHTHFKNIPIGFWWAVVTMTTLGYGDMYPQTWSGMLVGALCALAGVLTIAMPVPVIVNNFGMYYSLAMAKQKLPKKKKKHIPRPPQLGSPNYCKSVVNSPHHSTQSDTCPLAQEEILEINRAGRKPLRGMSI
Test: Kv3.1 channel modulation, IonWorks Quattro planar array electrophysiology
Type: cell-based
Conditions: for Kv3.1 max R %: normalised to maximum effect of 50 microM reference compound

[1] = HEK-293 cells expressing human Kv3.1, currents at −15 mV voltage step, normalised to 50 microM reference compound and vehicle, read-out: Kv3.1 pEC50 (converted)
[2] = HEK-293 cells expressing human Kv3.1
[3] = HEK-293 cells expressing human Kv3.1, currents at −15 mV voltage step, normalised to 50 microM reference compound and vehicle

Compound: Cc1ccc(Oc2ccc(N3C(=O)NC(C)(C)C3=O)cn2)c2c1OCC21CC1 [Reference Example 1, reference compound]
- EC50: 2510 nM

Compound: CC(C)c1cc(Oc2ccc(N3C(=O)NC(C)(C)C3=O)c(N)n2)ccc1C#N [Example 12, 4-[[6-amino-5-(4,4-dimethyl-2,5-dioxo-imidazolidin-1-yl)-2-pyridyl]oxy]-2-isopropyl-benzonitrile]
- EC50 [1]: 2000 nM
- Kv3.1 max R % [2]: 175%

Compound: CC[C@H]1NC(=O)N(c2ccc(Oc3ccc(C#N)c(C(C)C)c3)nc2)C1=O [Reference Example 19, reference compound]
- EC50 [1]: 1260 nM

Compound: CC1(C)NC(=O)N(c2ccc(Oc3cccc4c3C3(CC3)CO4)nc2N)C1=O [Example 3, 3-(2-amino-6-spiro[2H-benzofuran-3,1′-cyclopropane]-4-yloxy-3-pyridyl)-5,5-dimethyl-imidazolidine-2,4-dione]
- Kv3.1 pEC50 [3]: 6.3
- EC50 [1]: 501 nM
- Kv3.1 max R % [2]: 159%

Compound: CC[C@H]1NC(=O)N(c2ccc(Oc3ccc(C#N)c(OC(F)(F)F)c3)nc2OC)C1=O [Reference Example 18, reference compound]
- EC50 [1]: 10000 nM

Compound: CC1(C)NC(=O)N(c2ccc(Oc3cccc4c3C3(CC3)CO4)nc2)C1=O [Reference Example 4, reference compound]
- EC50 [1]: 31600 nM

Compound: CC[C@H]1NC(=O)N(c2ccc(Oc3cccc4c3C3(CC3)CO4)nc2N)C1=O [Example 4, (5R)-3-(2-amino-6-spiro[2H-benzofuran-3,1′-cyclopropane]-4-yloxy-3-pyridyl)-5-ethyl-imidazolidine-2,4-dione]
- Kv3.1 pEC50 [3]: 6.0
- EC50 [1]: 1000 nM
- Kv3.1 max R % [2]: 159%

Compound: CC[C@H]1NC(=O)N(c2ccc(Oc3ccc(C)c(OC(F)(F)F)c3)nc2C)C1=O [Reference Example 17, reference compound]
- EC50 [1]: 5010 nM

Compound: CC[C@H]1NC(=O)N(c2ccc(Oc3cccc4c3C3(CC3)CO4)nc2OC)C1=O [Reference Example 14, reference compound]
- EC50 [1]: 2000 nM

Compound: COc1nc(Oc2cccc3c2C2(CC2)CO3)ccc1N1C(=O)NC(C)(C)C1=O [Reference Example 5, reference compound]
- EC50 [1]: 3980 nM

Compound: Cc1ccc(Oc2ccc(N3C(=O)NC(C)(C)C3=O)cn2)cc1OC(F)(F)F [Reference Example 6, reference compound]
- EC50: 10000 nM

Compound: CC[C@H]1NC(=O)N(c2ccc(Oc3ccc(C)c(OC(F)(F)F)c3)nc2)C1=O [Reference Example 15, reference compound]
- EC50 [1]: 2510 nM

Compound: CC[C@H]1NC(=O)N(c2ccc(Oc3ccc(C)c4c3C3(CC3)CO4)nc2OC)C1=O [Reference Example 11, reference compound]
- EC50 [1]: 1260 nM

Compound: CC[C@H]1NC(=O)N(c2ccc(Oc3ccc(C)c(OC(F)(F)F)c3)nc2OC)C1=O [Reference Example 16, reference compound]
- EC50 [1]: 7940 nM

Compound: COc1cccc(Oc2ccc(N3C(=O)NC(C)(C)C3=O)c(N)n2)c1 [Example 6, 3-[2-amino-6-(3-methoxyphenoxy)-3-pyridyl]-5,5-dimethyl-imidazolidine-2,4-dione]
- EC50 [1]: 12600 nM
- Kv3.1 max R % [2]: 89%

Compound: Cc1ccc(Oc2ccc(N3C(=O)NC(C)(C)C3=O)c(C)n2)cc1OC(F)(F)F [Reference Example 8, reference compound]
- EC50 [1]: 6310 nM

Compound: CC[C@H]1NC(=O)N(c2ccc(Oc3ccc(C)c(OC(F)(F)F)c3)nc2N)C1=O [Example 8, (5R)-3-[2-amino-6-[4-methyl-3-(trifluoromethoxy)phenoxy]-3-pyridyl]-5-ethyl-imidazolidine-2,4-dione]
- Kv3.1 pEC50 [3]: 5.5
- EC50 [1]: 3160 nM
- Kv3.1 max R % [2]: 137%

Compound: COc1nc(Oc2ccc(C)c(OC(F)(F)F)c2)ccc1N1C(=O)NC(C)(C)C1=O [Reference Example 7, reference compound]
- EC50 [1]: 12600 nM

Compound: CC[C@H]1NC(=O)N(c2ccc(Oc3ccc(C)c4c3C3(CC3)CO4)nc2C)C1=O [Reference Example 12, reference compound]
- EC50 [1]: 631 nM

Compound: Cc1ccc(Oc2ccc(N3C(=O)NC(C)(C)C3=O)c(N)n2)c2c1OCC2(C)C [Example 14, 3-[2-amino-6-[(3,3,7-trimethyl-2H-benzofuran-4-yl)oxy]-3-pyridyl]-5,5-dimethyl-imidazolidine-2,4-dione]
- EC50 [1]: 501 nM
- Kv3.1 max R % [2]: 165%

Compound: CC[C@H]1NC(=O)N(c2ccc(Oc3ccc(C#N)c(C(C)C)c3)nc2N)C1=O [Example 13, 4-[[6-amino-5-[(4R)-4-ethyl-2,5-dioxo-imidazolidin-1-yl]-2-pyridyl]oxy]-2-isopropyl-benzonitrile]
- Kv3.1 pEC50 [3]: 5.5
- EC50 [1]: 3160 nM
- Kv3.1 max R % [2]: 161%

Compound: COc1nc(Oc2ccc(C#N)c(OC(F)(F)F)c2)ccc1N1C(=O)NC(C)(C)C1=O [Reference Example 9, reference compound]
- EC50 [1]: 12600 nM

Compound: CC1(C)NC(=O)N(c2ccc(Oc3cccc4c3C(C)(C)CO4)nc2N)C1=O [Example 5, 3-[2-amino-6-[(3,3-dimethyl-2H-benzofuran-4-yl)oxy]-3-pyridyl]-5,5-dimethyl-imidazolidine-2,4-dione]
- EC50 [1]: 631 nM
- Kv3.1 max R % [2]: 152%

Compound: Cc1ccc(Oc2ccc(N3C(=O)NC(C)(C)C3=O)c(N)n2)cc1OC(F)(F)F [Example 7, 3-[2-amino-6-[4-methyl-3-(trifluoromethoxy)phenoxy]-3-pyridyl]-5,5-dimethyl-imidazolidine-2,4-dione]
- Kv3.1 pEC50 [3]: 5.6
- EC50 [1]: 2510 nM
- Kv3.1 max R % [2]: 135%

Compound: Cc1ccc(Oc2ccc(N3C(=O)NC(C)(C)C3=O)c(C)n2)c2c1OCC21CC1 [Reference Example 3, reference compound]
- EC50 [1]: 1580 nM

Compound: CC[C@H]1NC(=O)N(c2ccc(Oc3ccc(C#N)c(OC(F)(F)F)c3)nc2N)C1=O [Example 11, 4-[[6-amino-5-[(4R)-4-ethyl-2,5-dioxo-imidazolidin-1-yl]-2-pyridyl]oxy]-2-(trifluoromethoxy)benzonitrile]
- Kv3.1 pEC50 [3]: 5.5
- EC50 [1]: 3160 nM
- Kv3.1 max R % [2]: 161%

Compound: CC[C@H]1NC(=O)N(c2ccc(Oc3ccc(C)c4c3C3(CC3)CO4)nc2N)C1=O [Example 2, (5R)-3-[2-amino-6-(7-methylspiro[2H-benzofuran-3,1′-cyclopropane]-4-yl)oxy-3-pyridyl]-5-ethyl-imidazolidine-2,4-dione]
- Kv3.1 pEC50 [3]: 6.3
- EC50 [1]: 501 nM
- Kv3.1 max R % [2]: 161%

Compound: CC1(C)NC(=O)N(c2ccc(Oc3ccc(C#N)c(OC(F)(F)F)c3)nc2N)C1=O [Example 10, 4-[[6-amino-5-(4,4-dimethyl-2,5-dioxo-imidazolidin-1-yl)-2-pyridyl]oxy]-2-(trifluoromethoxy)benzonitrile]
- Kv3.1 pEC50 [3]: 5.6
- EC50 [1]: 2510 nM
- Kv3.1 max R % [2]: 113%
